PubChem BioAssay (NCI)
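Five concentrations, 48 hours, 96-well plates. TGI: concentration producing complete growth inhibition.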

Assays:
Experiment in all cases: NCI anticancer screen, dose series, 48 h
MOLT-4 leukemia = system: MOLT-4 leukemia
HCC-2998 colon = system: HCC-2998 colon
UACC-257 melanoma = system: UACC-257 melanoma
KM12 colon = system: KM12 colon
HOP-92 NSCLC = system: HOP-92 NSCLC
OVCAR-5 ovarian = system: OVCAR-5 ovarian
RPMI-8226 leukemia = system: RPMI-8226 leukemia
HT29 colon = system: HT29 colon
UACC-62 melanoma = system: UACC-62 melanoma
HL-60(TB) leukemia = system: HL-60(TB) leukemia
SF-295 CNS = system: SF-295 CNS
OVCAR-3 ovarian = system: OVCAR-3 ovarian
CCRF-CEM leukemia = system: CCRF-CEM leukemia
KM20L2 colon = system: KM20L2 colon
HOP-18 NSCLC = system: HOP-18 NSCLC
DLD-1 colon = system: DLD-1 colon
SF-268 CNS = system: SF-268 CNS
SF-539 CNS = system: SF-539 CNS
EKVX NSCLC = system: EKVX NSCLC
MALME-3M melanoma = system: MALME-3M melanoma
SN12C renal = system: SN12C renal
DMS 273 small cell lung = system: DMS 273 small cell lung
M14 melanoma = system: M14 melanoma
UO-31 renal = system: UO-31 renal
CAKI-1 renal = system: CAKI-1 renal
LXFL 529 NSCLC = system: LXFL 529 NSCLC
K-562 leukemia = system: K-562 leukemia
M19-MEL melanoma = system: M19-MEL melanoma
HCT-15 colon = system: HCT-15 colon
HOP-62 NSCLC = system: HOP-62 NSCLC
LOX IMVI melanoma = system: LOX IMVI melanoma
SW-620 colon = system: SW-620 colon
SNB-19 CNS = system: SNB-19 CNS
OVCAR-4 ovarian = system: OVCAR-4 ovarian
SNB-75 CNS = system: SNB-75 CNS
U251 CNS = system: U251 CNS
SK-OV-3 ovarian = system: SK-OV-3 ovarian
SK-MEL-5 melanoma = system: SK-MEL-5 melanoma
NCI-H522 lung = system: NCI-H522 lung
OVCAR-8 ovarian = system: OVCAR-8 ovarian
DMS 114 small cell lung = system: DMS 114 small cell lung
IGROV1 ovarian = system: IGROV1 ovarian
NCI-H460 lung = system: NCI-H460 lung
RXF 393 renal = system: RXF 393 renal
TK-10 renal = system: TK-10 renal
A549 NSCLC = system: A549 NSCLC
SK-MEL-28 melanoma = system: SK-MEL-28 melanoma
ACHN renal = system: ACHN renal
COLO 205 colon = system: COLO 205 colon
NCI-H23 lung = system: NCI-H23 lung
SK-MEL-2 melanoma = system: SK-MEL-2 melanoma
786-0 renal = system: 786-0 renal
SR leukemia = system: SR leukemia
A498 renal = system: A498 renal
NCI-H226 lung = system: NCI-H226 lung
SNB-78 CNS = system: SNB-78 CNS
HCT-116 colon = system: HCT-116 colon

## CC1(C=O)C(=O)CCC2(C)C3CC(=O)OC3CCC12 (stereo unspecified)
MOLT-4 leukemia
  TGI: > 100 µM
HCC-2998 colon
  TGI: > 100 µM
UACC-257 melanoma
  TGI: > 100 µM
KM12 colon
  TGI: > 100 µM
HOP-92 NSCLC
  TGI: > 100 µM
OVCAR-5 ovarian
  TGI: > 100 µM
RPMI-8226 leukemia
  TGI: > 100 µM
HT29 colon
  TGI: > 100 µM
UACC-62 melanoma
  TGI: > 100 µM
HL-60(TB) leukemia
  TGI: > 100 µM
SF-295 CNS
  TGI: > 100 µM
OVCAR-3 ovarian
  TGI: > 100 µM
CCRF-CEM leukemia
  TGI: > 100 µM
KM20L2 colon
  TGI: > 100 µM
HOP-18 NSCLC
  TGI: > 100 µM
DLD-1 colon
  TGI: > 100 µM
SF-268 CNS
  TGI: > 100 µM
SF-539 CNS
  TGI: > 100 µM
EKVX NSCLC
  TGI: > 100 µM
MALME-3M melanoma
  TGI: > 100 µM
SN12C renal
  TGI: > 100 µM
DMS 273 small cell lung
  TGI: > 100 µM
M14 melanoma
  TGI: > 100 µM
UO-31 renal
  TGI: > 100 µM
CAKI-1 renal
  TGI: > 100 µM
LXFL 529 NSCLC
  TGI: > 100 µM
K-562 leukemia
  TGI: > 100 µM
M19-MEL melanoma
  TGI: > 100 µM
HCT-15 colon
  TGI: > 100 µM
HOP-62 NSCLC
  TGI: > 100 µM
LOX IMVI melanoma
  TGI: > 100 µM
SW-620 colon
  TGI: > 100 µM
SNB-19 CNS
  TGI: > 100 µM
OVCAR-4 ovarian
  TGI: > 100 µM
SNB-75 CNS
  TGI: > 100 µM
U251 CNS
  TGI: > 100 µM
SK-OV-3 ovarian
  TGI: > 100 µM
SK-MEL-5 melanoma
  TGI: > 100 µM
NCI-H522 lung
  TGI: > 100 µM
OVCAR-8 ovarian
  TGI: > 100 µM
DMS 114 small cell lung
  TGI: > 100 µM
IGROV1 ovarian
  TGI: > 100 µM
NCI-H460 lung
  TGI: > 100 µM
RXF 393 renal
  TGI: > 100 µM
TK-10 renal
  TGI: > 100 µM
A549 NSCLC
  TGI: > 100 µM
SK-MEL-28 melanoma
  TGI: > 100 µM
ACHN renal
  TGI: > 100 µM
COLO 205 colon
  TGI: > 100 µM
NCI-H23 lung
  TGI: > 100 µM
SK-MEL-2 melanoma
  TGI: > 100 µM
786-0 renal
  TGI: > 100 µM

## C/C(=C1/N=C(c2cc([N+](=O)[O-])ccc2Cl)N(c2ccc(Br)cc2)C1=O)c1cc2ccccc2oc1=O
MOLT-4 leukemia
  TGI: > 100 µM
HCC-2998 colon
  TGI: 65.1 µM
SR leukemia
  TGI: > 100 µM
UACC-257 melanoma
  TGI: > 100 µM
KM12 colon
  TGI: > 100 µM
OVCAR-5 ovarian
  TGI: > 100 µM
RPMI-8226 leukemia
  TGI: > 100 µM
HT29 colon
  TGI: > 100 µM
UACC-62 melanoma
  TGI: > 100 µM
HL-60(TB) leukemia
  TGI: > 100 µM
SF-295 CNS
  TGI: > 100 µM
A498 renal
  TGI: 66.8 µM
OVCAR-3 ovarian
  TGI: > 100 µM
CCRF-CEM leukemia
  TGI: > 100 µM
KM20L2 colon
  TGI: > 100 µM
HOP-18 NSCLC
  TGI: > 100 µM
DLD-1 colon
  TGI: > 100 µM
SF-268 CNS
  TGI: > 100 µM
SF-539 CNS
  TGI: > 100 µM
EKVX NSCLC
  TGI: > 100 µM
MALME-3M melanoma
  TGI: > 100 µM
SN12C renal
  TGI: > 100 µM
M14 melanoma
  TGI: > 100 µM
UO-31 renal
  TGI: > 100 µM
CAKI-1 renal
  TGI: > 100 µM
LXFL 529 NSCLC
  TGI: > 100 µM
K-562 leukemia
  TGI: > 100 µM
M19-MEL melanoma
  TGI: > 100 µM
HCT-15 colon
  TGI: > 100 µM
HOP-62 NSCLC
  TGI: > 100 µM
LOX IMVI melanoma
  TGI: > 100 µM
SW-620 colon
  TGI: > 100 µM
SNB-19 CNS
  TGI: > 100 µM
OVCAR-4 ovarian
  TGI: > 100 µM
SNB-75 CNS
  TGI: > 100 µM
U251 CNS
  TGI: > 100 µM
SK-OV-3 ovarian
  TGI: > 100 µM
SK-MEL-5 melanoma
  TGI: > 100 µM
NCI-H522 lung
  TGI: 52.4 µM
OVCAR-8 ovarian
  TGI: > 100 µM
DMS 114 small cell lung
  TGI: > 100 µM
NCI-H226 lung
  TGI: > 100 µM
IGROV1 ovarian
  TGI: > 100 µM
NCI-H460 lung
  TGI: > 100 µM
SNB-78 CNS
  TGI: > 100 µM
A549 NSCLC
  TGI: > 100 µM
SK-MEL-28 melanoma
  TGI: > 100 µM
ACHN renal
  TGI: > 100 µM
COLO 205 colon
  TGI: 21.8 µM
NCI-H23 lung
  TGI: > 100 µM
SK-MEL-2 melanoma
  TGI: > 100 µM
HCT-116 colon
  TGI: > 100 µM

## COc1ccc(NC(=O)CC(=O)NN2C(=O)/C(=C/c3ccc(N(CCC#N)CCC#N)cc3C)N=C2/C=C\c2ccccc2)cc1
MOLT-4 leukemia
  TGI: > 100 µM
SR leukemia
  TGI: > 100 µM
UACC-257 melanoma
  TGI: > 100 µM
KM12 colon
  TGI: > 100 µM
HOP-92 NSCLC
  TGI: > 100 µM
OVCAR-5 ovarian
  TGI: > 100 µM
RPMI-8226 leukemia
  TGI: > 100 µM
HT29 colon
  TGI: > 100 µM
UACC-62 melanoma
  TGI: > 100 µM
HL-60(TB) leukemia
  TGI: > 100 µM
SF-295 CNS
  TGI: > 100 µM
A498 renal
  TGI: > 100 µM
OVCAR-3 ovarian
  TGI: > 100 µM
CCRF-CEM leukemia
  TGI: > 100 µM
KM20L2 colon
  TGI: > 100 µM
HOP-18 NSCLC
  TGI: > 100 µM
DLD-1 colon
  TGI: > 100 µM
SF-268 CNS
  TGI: > 100 µM
SF-539 CNS
  TGI: > 100 µM
MALME-3M melanoma
  TGI: > 100 µM
SN12C renal
  TGI: > 100 µM
M14 melanoma
  TGI: > 100 µM
UO-31 renal
  TGI: > 100 µM
CAKI-1 renal
  TGI: > 100 µM
LXFL 529 NSCLC
  TGI: > 100 µM
K-562 leukemia
  TGI: > 100 µM
M19-MEL melanoma
  TGI: > 100 µM
HCT-15 colon
  TGI: > 100 µM
HOP-62 NSCLC
  TGI: > 100 µM
LOX IMVI melanoma
  TGI: > 100 µM
SW-620 colon
  TGI: > 100 µM
SNB-19 CNS
  TGI: > 100 µM
OVCAR-4 ovarian
  TGI: > 100 µM
SNB-75 CNS
  TGI: > 100 µM
U251 CNS
  TGI: > 100 µM
SK-OV-3 ovarian
  TGI: > 100 µM
SK-MEL-5 melanoma
  TGI: > 100 µM
NCI-H522 lung
  TGI: > 100 µM
OVCAR-8 ovarian
  TGI: > 100 µM
NCI-H226 lung
  TGI: > 100 µM
IGROV1 ovarian
  TGI: > 100 µM
NCI-H460 lung
  TGI: > 100 µM
SNB-78 CNS
  TGI: > 100 µM
TK-10 renal
  TGI: > 100 µM
A549 NSCLC
  TGI: > 100 µM
SK-MEL-28 melanoma
  TGI: > 100 µM
ACHN renal
  TGI: > 100 µM
COLO 205 colon
  TGI: > 100 µM
NCI-H23 lung
  TGI: > 100 µM
SK-MEL-2 melanoma
  TGI: > 100 µM
786-0 renal
  TGI: > 100 µM
HCT-116 colon
  TGI: > 100 µM
